The values below come from patent US8937050B2, “Methods and compositions for treatment of autism” (The Johns Hopkins University, priority 2011, dated 2015).

The subject of experiment [1] is K562 cells. Put plainly: Flow cytometric analysis of peroxisome proliferation (PEX14). The experiment is classed as cell-based, human. The following applies: eight to ten days, FIG. 1E. As to the method: (§1) Fibroblasts (70-95% confluent) were treated with 5 mM 4PBA (1 mM for JNK inhibition studies), 600 μM HU, 200 nM TSA, or 5 μM SFN unless otherwise specified.
K562 cells were incubated with 50 nM Mitotracker Green FM, 300 nM Mitotracker Deep Red 633 (Invitrogen), or PBS as a negative control for 15 min at 37° C. or stained with anti-Pex14 using Caltag Fix and Perm reagents (Invitrogen) following the manufacturer's instructions. Stained cells were suspended in 0.5 mL of 1% paraformaldehyde/PBS and subjected to flow cytometric analysis (FACScan machine, Becton Dickinson, Franklin Lakes, N.J.).
(§2) K562 cells were treated with SB and HU for four to ten days. […] (n≧3 unless otherwise noted).
To determine whether the induction of mitochondrial biogenesis by SB or HU treatment was necessary for the induction of HbF-producing cell production, K562 cells were treated with SB or HU in the presence or absence of AA. […] After two to four days of drug treatment with or without AA, mitochondrial mass was measured using Mitotracker, a mitochondrial stain. Fold change (drug treated/control) is shown. […] After four days of drug treatment with or without AA, cells were stained with DAF. […] After eight to ten days of drug treatment, peroxisome proliferation was measured using an antibody against the peroxisomal membrane protein, PEX14 and a FITC-labeled secondary antibody. […]
(In general: Flow cytometry measures light scatter and fluorescence of single cells or particles in a stream.)

Experiment [2] concerns K562 cells. As to the kind of experiment: HbF-producing cell production (DAF staining). The experiment is classed as cell-based, human. The following applies: K562 cells, 1.2 mM SB or 100 μM HU; FIG. 1D. As to the method:
as §1
K562 cells were suspended in 1.1 mL media and 240 μL of DAF [working solution 50 μL 2,7diaminofluorene (DAF) stock (50 μg DAF in 5 mL 90% glacial acetic acid), 50 μL 30% hydrogen peroxide, and 2.5 ml 200 mM Tris-HCl, pH 7.0]. DAF stained hemoglobinized cells were scored using a hemocytometer.
as §2
To determine whether the induction of mitochondrial biogenesis by SB or HU treatment was necessary for the induction of HbF-producing cell production, K562 cells were treated with SB or HU in the presence or absence of AA. […] After two to four days of drug treatment with or without AA, mitochondrial mass was measured using Mitotracker, a mitochondrial stain. Fold change (drug treated/control) is shown. […] After four days of drug treatment with or without AA, cells were stained with DAF. The relative number of cells producing HbF (DAF stained cells) were plotted. […] After eight to ten days of drug treatment, peroxisome proliferation was measured using an antibody against the peroxisomal membrane protein, PEX14 and a FITC-labeled secondary antibody. Fold change (drug treated/control) is shown. In FIGS. 1C, 1D, and 1E, the * represents a statistically significant increase in a measurement between drug treated and control samples or a statistically significant decrease in a measurement between drug treated and drug treated samples in the presence of AA (p≦0.05) (Bars=SEM). This finding indicates dependence of the beneficial effect (i.e., elevated HbF levels) on induced mitochondrial biogenesis. Thus, the therapeutic effects observed in SCD may involve the pharmacological induction of mitochondrial biogenesis by SB or HU.
K562 cells were treated for four days with HU in the presence or absence of SP600125 or PBS as a control (CON). […]

For experiment [3], the system named is sickle cell disease (SCD). The following applies: cited from earlier work.
The next experiment deals with Alzheimer's disease. To be noted: Park et al., 2009, Ricobaraza et al.; cited from earlier work.
Another experiment deals with HSF1. To be noted: luciferase reporter system; cited from earlier work.

The structures appear in SMILES notation. “Also recorded” adds a separate entry of the source.

Turning to `NC(=O)NO` [HU, hydroxyurea], the peroxisomal proliferation entry with K562 cells [1] is recorded as “significantly increased”. Besides, the “number of HbF-producing cells” value with K562 cells [2] is on record as “significantly increased”. Besides, the “cognitive function in children with SCD” value in experiment [3] (Puffer et al., 2007) was “improve cognitive function”. For the same compound, in experiment [3] (SCD), the incidence of strokes entry is “decreases”.
Regarding `C[S@@+]([O-])CCCCN=C=S` [SFN, 1-isothiocyanato-4R-(methylsulfinyl)butane], the “Therapeutic Effect” value in the experiment on Alzheimer's disease is listed as “reduce β-amyloid toxicity; also recorded: prevent neuronal cell death”. Moreover, in the experiment with HSF1, the “HSF1 mediated transcription of the reporter” value is “activated”.
